Experimental data: the NIST ThermoML archive (doi:10.1021/je0496995)

Legend:
[1] = mn = molality of the nth substance listed, in mol/kg; conditions: Liquid, m2 = 0; for viscosity: 101.3 kPa, Capillary tube (Ostwald / Ubbelohde) method; for mass density: 101.33 kPa, Pycnometric method
[2] = Liquid; for viscosity: 101.3 kPa, Capillary tube (Ostwald / Ubbelohde) method; for mass density: 101.33 kPa, Pycnometric method
[3] = wn = mass fraction of the nth substance listed; conditions: 101.3 kPa, Liquid; for viscosity: Capillary tube (Ostwald / Ubbelohde) method; for mass density: Pycnometric method

Cc1cccnc1 [3-methylpyridine] + O=C(O)c1cccnc1
[1]
Conditions	mass density [kg/m3]	viscosity [mPa·s]
293.15 K	956	0.9459
303.15 K	946.6	0.8318
313.15 K	937.7	0.7352
323.15 K	928.3	0.6565
333.15 K	919.3	0.5936
343.15 K	910.3	0.539

Cc1cccnc1 [3-methylpyridine]
[2]
Conditions	mass density [kg/m3]	viscosity [mPa·s]
293.15 K	956	0.9459
303.15 K	946.6	0.8318
313.15 K	937.7	0.7352
323.15 K	928.3	0.6565
333.15 K	919.3	0.5936
343.15 K	910.3	0.539

Cc1cccnc1 [3-methylpyridine] + O
[3]
Conditions	mass density, w1 = 0.1 [kg/m3]	mass density, w1 = 0.15 [kg/m3]	viscosity, w2 = 0.1 [mPa·s]	viscosity, w2 = 0.15 [mPa·s]
293.15 K	997.8	997.5	1.291	1.448
303.15 K	994.4	993.7	1.002	1.143
313.15 K	990.2	989.2	0.8117	0.9152
323.15 K	985.2	983.7	0.6796	0.7673
333.15 K	979.6	977.7	0.5794	0.6568
343.15 K	973.7	971.7	0.5053	0.5712
